Experiments:
HDAC6 human recombinant = HDAC6 human recombinant (Homo sapiens (Human), UniProt Q9UBN7); test: HDAC6 enzyme activity inhibition (fluorimetric, in vitro); type: biochemical; details: samples at 0.1, 1, 10, 100 and 1000 nM; 37° C. 60 minutes
Method: (§1) A HDAC enzyme inhibitory capacity of a test material was measured by using HDAC1 Fluorimetric Drug Discovery Assay Kit (Enzolifesciences: BML-AK511) and HDAC6 human recombinant (Calbiochem: 382180). For a HDAC1 assay, samples were treated at a concentration of 100, 1000 and 10000 nM. For a HDAC6 assay, samples were treated at a concentration of 0.1, 1, 10, 100 and 1000 nM. After the above sample treatment, a reaction was continued at 37° C. for 60 minutes, treated with a developer, and subjected to reaction at 37° C. for 30 minutes, after which fluorescence intensity (Ex 390, Em 460) was measured by using FlexStatin3 (Molecular device).

HDAC1 = HDAC1 (Homo sapiens (Human), UniProt Q13547); test: HDAC1 enzyme activity inhibition (HDAC1 Fluorimetric Drug Discovery Assay Kit); type: biochemical; details: samples at 100, 1000 and 10000 nM; 37° C. 60 minutes
Method: as §1

HDAC1, sequence (Q13547 whole entry): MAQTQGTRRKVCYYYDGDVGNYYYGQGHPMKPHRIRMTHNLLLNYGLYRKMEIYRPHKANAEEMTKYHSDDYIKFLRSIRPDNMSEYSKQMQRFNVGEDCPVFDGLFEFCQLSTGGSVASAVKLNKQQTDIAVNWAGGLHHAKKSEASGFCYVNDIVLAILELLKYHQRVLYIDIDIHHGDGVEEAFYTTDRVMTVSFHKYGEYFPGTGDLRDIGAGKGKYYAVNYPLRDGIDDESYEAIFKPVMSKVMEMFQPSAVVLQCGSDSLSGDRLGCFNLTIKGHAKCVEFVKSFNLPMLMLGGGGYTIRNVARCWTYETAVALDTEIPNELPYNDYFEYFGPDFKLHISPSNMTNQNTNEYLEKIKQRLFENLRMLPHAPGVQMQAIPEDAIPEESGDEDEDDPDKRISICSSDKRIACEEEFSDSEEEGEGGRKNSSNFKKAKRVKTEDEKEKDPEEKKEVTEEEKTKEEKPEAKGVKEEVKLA
HDAC6 human recombinant, sequence (Q9UBN7 whole entry): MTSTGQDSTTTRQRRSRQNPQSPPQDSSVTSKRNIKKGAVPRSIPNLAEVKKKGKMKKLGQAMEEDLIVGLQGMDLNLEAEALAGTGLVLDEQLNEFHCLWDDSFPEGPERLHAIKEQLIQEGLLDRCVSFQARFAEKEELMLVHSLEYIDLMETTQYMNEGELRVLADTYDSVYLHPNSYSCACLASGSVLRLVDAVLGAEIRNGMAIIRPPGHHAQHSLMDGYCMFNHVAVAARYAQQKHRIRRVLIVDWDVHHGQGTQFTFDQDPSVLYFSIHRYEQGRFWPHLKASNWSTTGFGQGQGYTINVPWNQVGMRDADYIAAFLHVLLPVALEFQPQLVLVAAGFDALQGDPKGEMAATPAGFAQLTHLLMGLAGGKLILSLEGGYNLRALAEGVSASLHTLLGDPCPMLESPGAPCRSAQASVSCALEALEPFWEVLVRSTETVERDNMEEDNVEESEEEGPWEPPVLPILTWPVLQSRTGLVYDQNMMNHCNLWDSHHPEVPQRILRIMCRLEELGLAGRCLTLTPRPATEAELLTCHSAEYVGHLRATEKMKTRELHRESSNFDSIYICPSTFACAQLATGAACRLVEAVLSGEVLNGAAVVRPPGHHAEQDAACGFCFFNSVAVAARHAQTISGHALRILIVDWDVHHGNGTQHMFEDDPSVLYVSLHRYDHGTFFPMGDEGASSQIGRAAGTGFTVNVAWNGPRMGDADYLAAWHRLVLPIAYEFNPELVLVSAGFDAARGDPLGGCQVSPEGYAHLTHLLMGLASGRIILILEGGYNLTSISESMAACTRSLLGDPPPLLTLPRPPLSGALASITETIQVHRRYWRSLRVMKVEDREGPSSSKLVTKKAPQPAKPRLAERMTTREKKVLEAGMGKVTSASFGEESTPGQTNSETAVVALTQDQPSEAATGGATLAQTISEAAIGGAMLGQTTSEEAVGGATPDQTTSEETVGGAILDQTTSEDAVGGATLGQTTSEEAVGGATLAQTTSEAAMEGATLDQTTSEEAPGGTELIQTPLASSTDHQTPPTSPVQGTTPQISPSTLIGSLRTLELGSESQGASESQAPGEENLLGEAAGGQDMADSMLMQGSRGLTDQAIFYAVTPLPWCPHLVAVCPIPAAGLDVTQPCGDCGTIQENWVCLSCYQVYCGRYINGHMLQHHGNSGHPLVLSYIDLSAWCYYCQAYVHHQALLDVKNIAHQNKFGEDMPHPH

SMILES | IC50 (HDAC6 human recombinant) [µM] | IC50 (HDAC1) [µM]
CC1(C)C(=O)N(Cc2ccc(-c3nnc(C(F)F)o3)cn2)C(=O)N1c1ccc(-c2cccc(F)c2)cc1 [Compound 28, 3-((5-(5-(difluoromethyl)-1,3,4-oxadiazol-2-yl)pyridin-2-yl)methyl)-1-(3′-fluoro-[1,1′-biphenyl]-4-yl)-5,5-dimethylimidazolidin-2,4-dione] | 0.168 | > 10
O=C1N(Cc2ccc(-c3nnc(C(F)F)o3)cn2)C(=O)C2(CCN(C3COC3)CC2)N1c1cccc(F)c1 [Compound 7, 3-((5-(5-(difluoromethyl)-1,3,4-oxadiazol-2-yl)pyridin-2-yl)methyl)-1-(3-fluorophenyl)-8-(oxetan-3-yl)-1,3,8-triazaspiro[4.5]decan-2,4-dione] | 0.1 | > 10
O=C1CN(c2ccccc2)C(=O)N1Cc1ccc(-c2nnc(C(F)F)o2)cn1 [Compound 4, 3-((5-(5-(difluoromethyl)-1,3,4-oxadiazol-2-yl)pyridin-2-yl)methyl)-1-phenylimidazolidin-2,4-dione] | 0.099 | > 10
CC(C)(C)OC(=O)n1ccc2c(N3C(=O)N(Cc4ccc(-c5nnc(C(F)F)o5)cn4)C(=O)C3(C)C)cccc21 [Compound 30, tert-butyl 4-(3-((5-(5-(difluoromethyl)-1,3,4-oxadiazol-2-yl)pyridin-2-yl)methyl)-5,5-dimethyl-2,4-dioxoimidazolidin-1-yl)-1H-indol-1-carboxylate] | 0.578 | > 10
CN1CC=C(c2cccc(N3C(=O)N(Cc4ccc(-c5nnc(C(F)F)o5)cn4)C(=O)C3(C)C)c2)CC1 [Compound 19, 3-((5-(5-(difluoromethyl)-1,3,4-oxadiazol-2-yl)pyridin-2-yl)methyl)-5,5-dimethyl-1-(3-(1-methyl-1,2,3,6-tetrahydropyridin-4-yl)phenyl)imidazolidin-2,4-dione] | 0.085 | > 10
CC(C)(C)OC(=O)N1CCC2(CC1)C(=O)N(Cc1ccc(-c3nnc(C(F)F)o3)cn1)C(=O)N2c1cccc(F)c1 [Compound 5, tert-butyl 3-((5-(5-(difluoromethyl)-1,3,4-oxadiazol-2-yl)pyridin-2-yl)methyl)-1-(3-fluorophenyl)-2,4-dioxo-1,3,8-triazaspiro[4.5]decan-8-carboxylate] | 0.206 | > 10
CC1(C)C(=O)N(Cc2ccc(-c3nnc(C(F)F)o3)cn2)C(=O)N1c1cccc(N)c1 [Compound 35, 1-(3-aminophenyl)-3-((5-(5-(difluoromethyl)-1,3,4-oxadiazol-2-yl)pyridin-2-yl)methyl)-5,5-dimethylimidazolidin-2,4-dione] | 0.052 | > 10
CC1(C)C(=O)N(Cc2ccc(-c3nnc(C(F)F)o3)cn2)C(=O)N1c1ccc(-c2ccccc2F)cc1 [Compound 29, 3-((5-(5-(difluoromethyl)-1,3,4-oxadiazol-2-yl)pyridin-2-yl)methyl)-1-(2′-fluoro-[1,1′-biphenyl]-4-yl)-5,5-dimethylimidazolidin-2,4-dione] | 0.165 | > 10
CC1(C)C(=O)N(Cc2ccc(-c3nnc(C(F)F)o3)cn2)C(=O)N1c1ccc(F)c(F)c1 [Compound 16, 3-((5-(5-(difluoromethyl)-1,3,4-oxadiazol-2-yl)pyridin-2-yl)methyl)-1-(3,4-difluorophenyl)-5,5-dimethylimidazolidin-2,4-dione] | 0.142 | > 10
O=C1CN(c2ccccc2)C(=O)N1Cc1ncc(-c2nnc(C(F)F)o2)cn1 [Compound 9, 3-((5-(5-(difluoromethyl)-1,3,4-oxadiazol-2-yl)pyrimidin-2-yl)methyl)-1-phenylimidazolidin-2,4-dione] | 0.147 | > 10
